Data on 15 compounds can be found in patent publication US20210122730A1, “GLUCOCORTICOID RECEPTOR MODULATORS” (ORIC Pharmaceuticals, Inc., priority 2017, published 2021).

Data set [1] has as its target T1, GR (Homo sapiens, UniProt P04150).
T1 construct: expressed in transfected cells; host or cells: CHO-K1
T1 sequence (P04150 1-777): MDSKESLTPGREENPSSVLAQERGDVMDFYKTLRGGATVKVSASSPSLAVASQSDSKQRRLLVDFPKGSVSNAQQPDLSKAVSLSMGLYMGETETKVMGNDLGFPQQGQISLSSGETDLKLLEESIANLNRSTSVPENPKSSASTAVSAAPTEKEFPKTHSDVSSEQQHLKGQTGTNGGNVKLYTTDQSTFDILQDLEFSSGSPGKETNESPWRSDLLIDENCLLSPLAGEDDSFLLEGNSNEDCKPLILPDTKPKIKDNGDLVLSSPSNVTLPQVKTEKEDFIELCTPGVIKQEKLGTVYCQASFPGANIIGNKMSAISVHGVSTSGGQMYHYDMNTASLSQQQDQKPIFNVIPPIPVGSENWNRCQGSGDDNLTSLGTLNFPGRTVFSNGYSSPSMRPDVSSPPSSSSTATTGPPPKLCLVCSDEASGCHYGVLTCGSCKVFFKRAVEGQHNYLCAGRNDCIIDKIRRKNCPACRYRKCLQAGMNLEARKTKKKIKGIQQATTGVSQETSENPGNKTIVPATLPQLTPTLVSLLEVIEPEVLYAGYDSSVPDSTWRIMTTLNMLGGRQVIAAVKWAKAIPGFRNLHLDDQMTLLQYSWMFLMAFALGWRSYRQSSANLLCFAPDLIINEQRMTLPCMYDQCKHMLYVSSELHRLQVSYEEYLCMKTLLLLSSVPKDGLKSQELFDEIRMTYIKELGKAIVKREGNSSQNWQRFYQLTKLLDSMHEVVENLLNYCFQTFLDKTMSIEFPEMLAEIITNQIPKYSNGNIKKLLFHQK
The data set is described as follows: In Vitro GR Luciferase Reporter Assay (antagonist mode, CHO-K1-GR-MMTV-Luc reporter cells). In kind it is cell-based. The conditions noted are these: antagonist mode, 10 nM Dexamethasone. The essentials: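 CHO-K1-GR-MMTV-Luc cells in phenol red-free DMEM with 10% CSS, stimulated with 10 nM dexamethasone (final) and treated with 8-point 1:5 compound dilutions for about 18-24 h at 37° C. Luciferase measured by OneGlo luminescence; IC50 derived for inhibition of GR activity.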

Data set [2] has as its target T2, CYP2C8 (Homo sapiens, UniProt P10632).
T2 construct: Pooled human microsomes were obtained from Sekisui XenoTech, KS; tissue Sekisui XenoTech, KS; host or cells: pooled human liver microsomes
T2 sequence (P10632 1-490): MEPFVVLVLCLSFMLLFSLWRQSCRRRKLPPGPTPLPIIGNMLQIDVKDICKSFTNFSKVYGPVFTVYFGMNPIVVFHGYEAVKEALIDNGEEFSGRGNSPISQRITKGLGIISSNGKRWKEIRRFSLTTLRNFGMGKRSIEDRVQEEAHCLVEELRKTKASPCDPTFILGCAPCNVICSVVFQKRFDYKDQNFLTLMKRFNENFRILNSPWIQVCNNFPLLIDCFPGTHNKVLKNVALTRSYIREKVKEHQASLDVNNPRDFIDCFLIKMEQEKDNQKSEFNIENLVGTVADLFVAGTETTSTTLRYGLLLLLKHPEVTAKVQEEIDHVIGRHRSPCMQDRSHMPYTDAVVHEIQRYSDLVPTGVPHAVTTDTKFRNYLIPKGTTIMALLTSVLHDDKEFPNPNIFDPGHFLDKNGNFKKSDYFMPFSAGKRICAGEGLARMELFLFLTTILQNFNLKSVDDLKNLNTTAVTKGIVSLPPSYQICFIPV
The data set is described as follows: CYP Inhibition Assay (CYP2C8, human liver microsomes, paclitaxel substrate). In kind it is in vitro ADME. Conditions: pH 7.4; pooled human liver microsomes 0.1 mg/mL, probe substrate paclitaxel. In a few lines:
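Pooled human liver microsomes (0.1 mg/mL) in 50 mM potassium phosphate pH 7.4 with compound, started with 1 mM NADPH, 5 min at 37° C, duplicate.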

In general, IC50 refers to the concentration needed to halve the response being measured. As usually defined, the inhibition is the share of the control response that was lost under treatment. A lower inhibition goes with a weak effect.

With `O=C(c1ncc(C(F)(F)F)s1)[C@]12Cc3cnn(-c4ccc(F)cc4)c3C=C1CC[C@H](N(C1CC1)S(=O)(=O)c1ccc(Cl)cn1)C2` [Example 333, 5-chloro-N-cyclopropyl-N-((4aS,6S)-1-(4-fluorophenyl)-4a-(5-(trifluoromethyl)thiazole-2-carbonyl)-4,4a,5,6,7,8-hexahydro-1H-benzo[f]indazol-6-yl)pyridine-2-sulfonamide], the IC50 in data set [1] is not above 100 nM. The same compound returned an inhibition at 5 min in data set [2] not above 25%.
In data set [1], `O=C(c1cc(C(F)(F)F)ccn1)[C@]12Cc3cnn(-c4ccc(F)cc4)c3C=C1CC[C@H](N(C1CC1)S(=O)(=O)c1cncc(Cl)c1)C2` [Example 334, 5-chloro-N-cyclopropyl-N-((4aS,6S)-1-(4-fluorophenyl)-4a-(4-(trifluoromethyl)picolinoyl)-4,4a,5,6,7,8-hexahydro-1H-benzo[f]indazol-6-yl)pyridine-3-sulfonamide] returned an IC50 not above 100 nM. In data set [2], this compound yielded an inhibition at 5 min of 50 to 75%.
Taken in the same sequence, the figures for `Cn1cnc(S(=O)(=O)N(C2CC(F)(F)C2)[C@H]2CCC3=Cc4c(cnn4-c4ccc(F)cc4)C[C@]3(C(=O)c3cc(F)ccn3)C2)c1` [Example 335, N-(3,3-difluorocyclobutyl)-N-((4aS,6S)-1-(4-fluorophenyl)-4a-(4-fluoropicolinoyl)-4,4a,5,6,7,8-hexahydro-1H-benzo[f]indazol-6-yl)-1-methyl-1H-imidazole-4-sulfonamide] were not above 100 nM and not above 25%.
The matching figures for `Cn1ccc(S(=O)(=O)N(CC(F)F)[C@H]2CCC3=Cc4c(cnn4-c4ccc(F)cc4)C[C@]3(C(=O)c3ncc(C(F)(F)F)s3)C2)n1` [Example 337, N-(2,2-difluoroethyl)-N-((4aS,6S)-1-(4-fluorophenyl)-4a-(5-(trifluoromethyl)thiazole-2-carbonyl)-4,4a,5,6,7,8-hexahydro-1H-benzo[f]indazol-6-yl)-1-methyl-1H-pyrazole-3-sulfonamide]: not above 100 nM and 50 to 75%.
The matching figures for `Cn1ccc(S(=O)(=O)N(CC(F)F)[C@H]2CCC3=Cc4c(cnn4-c4ccc(F)cc4)C[C@]3(C(=O)c3cc(F)ccn3)C2)n1` [Example 338, N-(2,2-difluoroethyl)-N-((4aS,6S)-1-(4-fluorophenyl)-4a-(4-fluoropicolinoyl)-4,4a,5,6,7,8-hexahydro-1H-benzo[f]indazol-6-yl)-1-methyl-1H-pyrazole-3-sulfonamide]: not above 100 nM and 75 to 90%.
The compound `Cn1cnc(S(=O)(=O)N(C2CC(F)(F)C2)[C@H]2CCC3=Cc4c(cnn4-c4ccc(F)cc4)C[C@]3(C(=O)c3cc(Cl)ccn3)C2)c1` [Example 339, N-((4aS,6S)-4a-(4-chloropicolinoyl)-1-(4-fluorophenyl)-4,4a,5,6,7,8-hexahydro-1H-benzo[f]indazol-6-yl)-N-(3,3-difluorocyclobutyl)-1-methyl-1H-imidazole-4-sulfonamide] came in with an IC50 in data set [1] not above 100 nM. In data set [2], this compound had an inhibition at 5 min of 25 to 50%.
The matching figures for `O=C(c1cc(C(F)(F)F)ccn1)[C@]12Cc3cnn(-c4ccc(F)cc4)c3C=C1CC[C@H](N(CC(F)F)S(=O)(=O)c1ccc(Cl)nc1)C2` [Example 341, 6-chloro-N-(2,2-difluoroethyl)-N-((4aS,6S)-1-(4-fluorophenyl)-4a-(4-(trifluoromethyl)picolinoyl)-4,4a,5,6,7,8-hexahydro-1H-benzo[f]indazol-6-yl)pyridine-3-sulfonamide]: not above 100 nM and 25 to 50%.
Taken in the same sequence, the figures for `CO[C@]1(C)C[C@H](N([C@H]2CCC3=Cc4c(cnn4-c4ccc(F)cc4)C[C@]3(C(=O)c3ncc(C(F)(F)F)s3)C2)S(=O)(=O)c2ccn(C)n2)C1` [Example 342, N-((4aS,6S)-1-(4-fluorophenyl)-4a-(5-(trifluoromethyl)thiazole-2-carbonyl)-4,4a,5,6,7,8-hexahydro-1H-benzo[f]indazol-6-yl)-N-((1s,3R)-3-methoxy-3-methylcyclobutyl)-1-methyl-1H-pyrazole-3-sulfonamide] were not above 100 nM and 25 to 50%.
In data set [1], `C[C@]1(O)C[C@@H](N([C@H]2CCC3=Cc4c(cnn4-c4ccc(F)cc4)C[C@]3(C(=O)c3cc(Cl)ccn3)C2)S(=O)(=O)c2ccc(F)cc2)C1` [Example 344, N-((4aS,6S)-4a-(4-chloropicolinoyl)-1-(4-fluorophenyl)-4,4a,5,6,7,8-hexahydro-1H-benzo[f]indazol-6-yl)-4-fluoro-N-((1s,3R)-3-hydroxy-3-methylcyclobutyl)benzenesulfon-amide] returned a concentration for half-maximal inhibition (IC50) not above 100 nM. The compound further showed an inhibition at 5 min in data set [2] of 25 to 50%.
Taken in the same sequence, the figures for `O=C(c1cc(F)ccn1)[C@]12Cc3cnn(-c4ccc(F)cc4)c3C=C1CC[C@H](N(C1CC(F)(F)C1)S(=O)(=O)c1ccc(Cl)nc1)C2` [Example 346, 6-chloro-N-(3,3-difluorocyclobutyl)-N-((4aS,6S)-1-(4-fluorophenyl)-4a-(4-fluoropicolinoyl)-4,4a,5,6,7,8-hexahydro-1H-benzo[f]indazol-6-yl)pyridine-3-sulfonamide] were not above 100 nM and 25 to 50%.
The matching figures for `Cn1cnc(S(=O)(=O)N(C2CC2)[C@H]2CCC3=Cc4c(cnn4-c4ccc(F)cc4)C[C@]3(C(=O)c3cc(F)ccn3)C2)n1` [Example 347, N-cyclopropyl-N-((4aS,6S)-1-(4-fluorophenyl)-4a-(4-fluoropicolinoyl)-4,4a,5,6,7,8-hexahydro-1H-benzo[f]indazol-6-yl)-1-methyl-1H-1,2,4-triazole-3-sulfonamide]: not above 100 nM and 25 to 50%.
The matching figures for `Cn1cnc(S(=O)(=O)N(C2CC2)[C@H]2CCC3=Cc4c(cnn4-c4ccc(F)cc4)C[C@]3(C(=O)c3cc(Cl)ccn3)C2)n1` [Example 348, N-((4aS,6S)-4a-(4-chloropicolinoyl)-1-(4-fluorophenyl)-4,4a,5,6,7,8-hexahydro-1H-benzo[f]indazol-6-yl)-N-cyclopropyl-1-methyl-1H-1,2,4-triazole-3-sulfonamide]: not above 100 nM and 25 to 50%.
In the case of `Cn1ccc(S(=O)(=O)N(C2CC(F)(F)C2)[C@H]2CCC3=Cc4c(cnn4-c4ccc(F)cc4)C[C@]3(C(=O)c3cc(Cl)ccn3)C2)n1` [Example 349, N-((4aS,6S)-4a-(4-chloropicolinoyl)-1-(4-fluorophenyl)-4,4a,5,6,7,8-hexahydro-1H-benzo[f]indazol-6-yl)-N-(3,3-difluorocyclobutyl)-1-methyl-1H-pyrazole-3-sulfonamide], the concentration for half-maximal inhibition (IC50) in data set [1] is not above 100 nM. For the same compound, in data set [2], the inhibition at 5 min lay within 25 to 50%.
Taken in the same sequence, the figures for `Cn1cc(S(=O)(=O)N(CC(F)F)[C@H]2CCC3=Cc4c(cnn4-c4ccc(F)cc4)C[C@]3(C(=O)c3ncc(C(F)(F)F)s3)C2)nn1` [Example 350, N-(2,2-difluoroethyl)-N-((4aS,6S)-1-(4-fluorophenyl)-4a-(5-(trifluoromethyl)thiazole-2-carbonyl)-4,4a,5,6,7,8-hexahydro-1H-benzo[f]indazol-6-yl)-1-methyl-1H-1,2,3-triazole-4-sulfonamide] were not above 100 nM and 25 to 50%.
Taken in the same sequence, the figures for `Cn1cnc(S(=O)(=O)N(C2CC(F)(F)C2)[C@H]2CCC3=Cc4c(cnn4-c4ccc(F)cc4)C[C@]3(C(=O)c3cc(F)ccn3)C2)n1` [Example 354, N-(3,3-difluorocyclobutyl)-N-((4aS,6S)-1-(4-fluorophenyl)-4a-(4-fluoropicolinoyl)-4,4a,5,6,7,8-hexahydro-1H-benzo[f]indazol-6-yl)-1-methyl-1H-1,2,4-triazole-3-sulfonamide] were not above 100 nM and 25 to 50%.
